According to US20120220594A1, “METHODS FOR TREATING CANCER IN PATIENTS HAVING IGF-1R INHIBITOR RESISTANCE” (Bristol-Meyers Squibb Company, priority 2009, published 2012):
Like-named read-outs stand apart in the source and are kept apart here.

Tests used:
Rh41-MAB391R cells = test: 3H-thymidine incorporation cell proliferation assay in MAB391-resistant Rh41-MAB391R cells; format: cell-based, human; details: for IC50: read-out: IC50 (nM) Rh41-MAB391R
Excerpt: Human rhabdomyosarcoma cell line Rh41 was provided by Dr. Lee Helman and grown in RPMI medium plus GLUTAMAX® supplemented with 10% fetal bovine serum (FBS), 10 mmol/L HEPES, penicillin, and streptomycin. To develop acquired resistant cells to either BMS-754807, or mAB391 (R&D Systems, Inc., Minneapolis, Minn.), the sensitive Rh41 cells were exposed to the corresponding drug at the IC50 concentration and then at gradually increasing concentrations every other culture passage. The IC50 value to the compound was measured periodically during this treatment time until the resistance level reached a plateau.
(§1) Human rhabdomyosarcoma cell line Rh41 was chosen in this study to develop acquired resistance because it expresses IGF-1R (Huang et al., Cancer Res., 69(1):161-170 (Jan. 1, 2009)), the target of BMS-754807 and MAB391; and is sensitive to both drugs (Carboni et al., Proceedings of the 100th Annual Meeting of the American Association for Cancer Research, 2009 Apr. 18-22; Denver, Colo., Abstract No. 1742). The acquired-resistant Rh41-807R and Rh41-MAB391R cell lines were developed using a stepwise exposure to increasing concentrations of either IGF-1R/IR inhibitor BMS-754807 or IGF-1R antibody MAB391 for extended periods of time until a resistance plateau was reach. […];

Rh41 cells = test: 3H-thymidine incorporation cell proliferation assay in parental Rh41 cells; format: cell-based, human
Excerpt: (§2) Human rhabdomyosarcoma cell line Rh41 was provided by Dr. Lee Helman and grown in RPMI medium plus GLUTAMAX® supplemented with 10% fetal bovine serum (FBS), 10 mmol/L HEPES, penicillin, and streptomycin.

Rh41-807R cells = test: 3H-thymidine incorporation cell proliferation assay in BMS-754807-resistant Rh41-807R cells; format: cell-based, human
Excerpt: as §2

[1] = test system: Rh41-807R cells with PDGFR-α knockdown; test: Proliferation assay in Rh41-807R cells transfected with PDGFR-α specific siRNA; details: Rh41-807R cells treated with PDGFR-α siRNA
Experimental: (§3) RISC-free siRNA was transfected as the negative control (Dharmacon). Following the addition of the drugs, cells were incubated at 37° C. for 72 hours before cell growth was measured by incorporation of ^3H-thymidine as described for in vitro cellular proliferation assays.

PDGFRα RNA in Rh41 cells = test: Induction of PDGFRα expression in sensitive parental Rh41 cells (qRT-PCR); format: cell-based, human
Experimental: FIGS. 3A-F show expression pattern comparisons of selected genes/proteins that uniquely changed expression only in 807R or in MAB391R. […] Insert: PDGFR-α protein expression pattern as detected by western blot. […] Cells starved for 24 hr, then stimulated with or without 50 ng/ml PDGF ligand fro 5 min. Cells were lyzed and 30 ug of total protein was used for western blot analyses. […] Insert: AXL protein expression as detected by western blot. […] Cells treated with 10 nM and 50 nM of BMS-754807 for 1, 2, 4, 8 and 24 hrs. PDGFRα RNA levels were measured by qRT-PCR and compared to the untreated time 0 control.
Comparing genes expression profiles, the inventors found there were some key signaling pathways that were differentially expressed in Rh41-807R and Rh41-MAB391R cells. An interesting example was PDGFR-α, which had >89 fold increase in RNA expression in Rh41-807R cells but not in Rh41-MAB391R compared to the parental; and the induction of PDGFR-α was persistent even in cells out of BMS-754807 selection for 3 months (FIG. 3A). The expression pattern was also confirmed at protein levels (FIG. 3A); PDGFR-α was also constitutively activated in Rh41-807R cells (FIG. 3B). […] Other genes such as c-KIT, FGFR2 and EPHA3 had similar expression pattern as PDGFR-α (FIG. 3C). Several Eph receptor family members such as EPHA3, EPHA4 and EPHB2 as well as ligand EFNA3 were overexpressed in 807R.

SW403-807R cells = test: 3H-thymidine incorporation cell proliferation assay in SW403-807R cells; format: cell-based
Experimental: (§4) Cells were plated at an optimized density in 96-well plates, incubated overnight at 37° C., and then exposed to a serial dilution of the drugs. After 72 hours incubation, cells were pulsed with 4 μCi/ml [^3H]-thymidine (Amersham Pharmacia Biotech, UK) for 3 hours, trypsinized, harvested onto […] ®-96 GF/B plates (PerkinElmer, Boston, Mass.); scintillation was measured on a TOPCOUNTO NXT (Packard, Conn.). […] The mean IC50 and standard deviation from multiple tests for each cell line were calculated.

Rh1 cells = test: 3H-thymidine incorporation cell proliferation assay in Rh1 cells; format: cell-based; details: Homo sapiens, RH-1
Experimental: as §4

MCF-7-807R cells = test: 3H-thymidine incorporation cell proliferation assay in MCF-7-807R cells
Experimental: as §4

Geo cells = test: 3H-thymidine incorporation cell proliferation assay in Geo cells; format: cell-based
Experimental: as §4

Rh41 xenograft tumors = test: In vivo xenograft tumor growth inhibition, Rh41; details: Rh41 xenograft tumors in nude mice
Experimental: (§5) Tumor volume was measured to assess tumor growth inhibition.

GEO-807R cells = test: 3H-thymidine incorporation cell proliferation assay in GEO-807R cells; format: cell-based
Experimental: as §4

SW403 cells = test: 3H-thymidine incorporation cell proliferation assay in SW403 cells; format: cell-based; details: Homo sapiens, SW-403
Experimental: as §4

Rh1-807R cells = test: 3H-thymidine incorporation cell proliferation assay in Rh1-807R cells; format: cell-based
Experimental: as §4

Rh41-807Rout cells = test: Cell proliferation assay in Rh41-807Rout cells (out of drug selection for 3 months); format: cell-based, human; details: out of drug selection for 3 months of passages
Excerpt: as §1

[2] = test system: Rh41 cells with PDGFR-α knockdown; test: Proliferation assay in Rh41 cells transfected with PDGFR-α specific siRNA; details: Rh41 sensitive parental cells
Experimental: as §3

[3] = test system: Rh41-807R xenograft tumors; test: In vivo xenograft tumor growth inhibition, Rh41-807R; details: Rh41-807R xenograft tumors in nude mice
Experimental: as §5

[4] = Homo sapiens, Rh41 cells, cytotoxic agents and mTOR inhibitor, Table 2, read-out: Rh41 IC50
[5] = Homo sapiens, Rh41-807R cells, cytotoxic agents and mTOR inhibitor, Table 2, read-out: Rh41-807R IC50

Compound: Cc1cc(N2CCOCC2)cc2[nH]c(-c3c(NC[C@@H](O)c4cccc(Cl)c4)cc[nH]c3=O)nc12 [BMS-536924]
- IC50 (Rh41-MAB391R cells; Rh41-MAB391R cells, 72 h, 3H-thymidine incorporation, Table 1): 90.2 ± 2.2 nM
- IC50 (Rh41 cells; Rh41 parental cells, 72 h, 3H-thymidine incorporation, Table 1, read-out: IC50 (nM) Rh41): 31 nM
- IC50 (Rh41-807R cells; Rh41-807R cells, 72 h, 3H-thymidine incorporation, Table 1, read-out: IC50 (nM) Rh41-807R): > 1000 nM

Compound: C[C@@]1(C(=O)Nc2ccc(F)nc2)CCCN1c1nc(Nc2cc(C3CC3)[nH]n2)c2cccn2n1 [BMS-754807, (2S)-1-(4-((5-cyclopropyl-1H-pyrazol-3-yl)amino)pyrrolo[2,1-f][1,2,4]triazin-2-yl)-N-(6-fluoro-3-pyridinyl)-2-methyl-2-pyrrolidinecarboxamide]
- response to growth inhibition after PDGFR-α siRNA [1]: sensitive to growth inhibition
- IC50 (Rh41-MAB391R cells; Homo sapiens): 27 nM
- activity in the Rh41-MAB391R model (Rh41-MAB391R cells; growth inhibited to a comparable level as the parental cells): relatively active
- time at which induction of PDGFRα RNA was seen after treatment (PDGFRα RNA in Rh41 cells; Rh41 cells): 4 h
- induction of PDGFR-α expression (PDGFRα RNA in Rh41 cells; Rh41 sensitive parental cells, 10 nM and 50 nM): dose-dependent
- IC50 (Rh41 cells; Homo sapiens, Rh41, read-out: IC50 (nM) Rh41): 5 nM
- IC50 (Rh41 cells; Homo sapiens, Rh41, read-out: IGF-1R inhibitor Compound (IC50)): 5 nM
- IC50 (Rh41 cells; Homo sapiens, Rh41, read-out: Parental IC50 (nM)): 5 nM
- IC50 (SW403-807R cells; Homo sapiens, SW-403, BMS-754807-resistant SW403 cells, maintenance conc. 500, Table 8, read-out: IC50): 979 nM
- IC50 (SW403-807R cells; SW403-807R cells, Table 9, read-out: IGF-1R inhibitor Compound (IC50)): 979 ± 528 nM
- Relative resistance (SW403-807R cells; fold change in IC50, resistant vs parental SW403 cells): 4.5X
- IC50 (Rh1 cells; Rh1 cells, Table 9, read-out: IGF-1R inhibitor Compound (IC50)): 27 nM
- IC50 (Rh1 cells; Rh1 parental cells, Table 8, read-out: Parental IC50): 27 nM
- IC50 (MCF-7-807R cells; Homo sapiens, MCF7): 735 nM
- Relative resistance (MCF-7-807R cells; fold change in IC50, resistant vs parental MCF-7 cells): 46X
- IC50 (MCF-7-807R cells; read-out: IGF-1R inhibitor Compound (IC50)): 972 ± 400 nM
- IC50 (Rh41-807R cells; Homo sapiens, Rh41): 811 nM
- IC50 (Rh41-807R cells; Homo sapiens, read-out: IC50 (nM) Rh41-807R): 811 nM
- IC50 (Rh41-807R cells; Homo sapiens, read-out: IGF-1R inhibitor Compound (IC50)): 811 nM
- Relative resistance (Rh41-807R cells; fold change in IC50, resistant vs parental Rh41 cells): 162X
- IC50 (Geo cells; Geo cells, Table 9, read-out: IGF-1R inhibitor Compound (IC50)): 350 nM
- IC50 (Geo cells; Geo parental cells, Table 8, read-out: Parental IC50): 350 nM
- tumor growth inhibition (TGI) (Rh41 xenograft tumors): 73%
- IC50 (GEO-807R cells; BMS-754807-resistant Geo cells, maintenance conc. 2000, Table 8, read-out: IC50): 1230 nM
- IC50 (GEO-807R cells; GEO-807R cells, Table 9, read-out: IGF-1R inhibitor Compound (IC50)): 1230 ± 251 nM
- Relative resistance (GEO-807R cells; fold change in IC50, resistant vs parental Geo cells): 3.5X
- IC50 (SW403 cells; SW403 cells, Table 9, read-out: IGF-1R inhibitor Compound (IC50)): 220 nM
- IC50 (SW403 cells; SW403 parental cells, Table 8, read-out: Parental IC50): 220 nM
- IC50 (Rh1-807R cells; Homo sapiens, RH-1, BMS-754807-resistant Rh1 cells, maintenance conc. 120, Table 8, read-out: IC50): 1800 nM
- IC50 (Rh1-807R cells; Rh1-807R cells, Table 9, read-out: IGF-1R inhibitor Compound (IC50)): 1800 ± 1390 nM
- Relative resistance (Rh1-807R cells; fold change in IC50, resistant vs parental Rh1 cells): 66.5X
- resistance of Rh41-807Rout (Rh41-807Rout cells): significant level of resistance
- sensitivity between untransfected, control siRNA and PDGFR-α-specific siRNA transfected cells [2]: no significant differences in the sensitivity
- tumor growth inhibition (TGI) [3]: 35%

Compound: CN1CCN(c2ccc3nc(-c4c(N)c5c(F)cccc5[nH]c4=O)[nH]c3c2)CC1 [Dovitinib]
- IC50 (Rh41 cells; Homo sapiens, Rh41 cells, PDGFR inhibitors, Table 7, read-out: Rh41 IC50): 6456 ± 60 nM
- IC50 (Rh41-807R cells; Homo sapiens, Rh41-807R cells, PDGFR inhibitors, Table 7, read-out: Rh41-807R IC50): 722 ± 264 nM

Compound: Nc1ccn([C@@H]2O[C@H](CO)[C@@H](O)C2(F)F)c(=O)n1 [Gemcitabine]
- IC50 (Rh41 cells; [4]): 1.1 ± 0.4 nM
- IC50 (Rh41-807R cells; [5]): 3 nM
- sensitivity of Rh41-807R compared with the parental line (Rh41-807R cells; cytotoxic agents and mTOR inhibitor): very similar level of sensitivity as the parental line

Compound: C/C(=C\c1csc(C)n1)[C@@H]1C[C@@H]2O[C@]2(C)CCC[C@H](C)[C@H](O)[C@@H](C)C(=O)C(C)(C)[C@@H](O)CC(=O)N1 [Ixabepilone]
- IC50 (Rh41 cells; [4]): 4 nM
- IC50 (Rh41-807R cells; [5]): 3.4 ± 0.4 nM

Compound: CO[C@H]1C[C@@H]2CC[C@@H](C)[C@@](O)(O2)C(=O)C(=O)N2CCCC[C@H]2C(=O)O[C@H]([C@H](C)C[C@@H]2CC[C@@H](O)[C@H](OC)C2)CC(=O)[C@H](C)/C=C(\C)[C@@H](O)[C@@H](OC)C(=O)[C@H](C)C[C@H](C)/C=C/C=C/C=C/1C [Rapamycin]
- IC50 (Rh41 cells; [4]): < 0.32 nM
- IC50 (Rh41-807R cells; [5]): < 0.32 nM
